For 16 molecules, IC50 results are on record in US20220017541A1, “INHIBITORS OF ARGINASE” (Black Belt Tx Ltd, priority 2018, published 2022).

pIC50: −log10 of the molar value.

For orientation: pIC50 means the IC50 on a negative log10 scale, so that one unit is a factor of ten.

Experiment [1] concerns the target T1, recombinant human ARG1 (Homo sapiens, UniProt P05089).
T1 construct: purchased R&D System 5868-AR-010
T1 sequence (P05089 1-322): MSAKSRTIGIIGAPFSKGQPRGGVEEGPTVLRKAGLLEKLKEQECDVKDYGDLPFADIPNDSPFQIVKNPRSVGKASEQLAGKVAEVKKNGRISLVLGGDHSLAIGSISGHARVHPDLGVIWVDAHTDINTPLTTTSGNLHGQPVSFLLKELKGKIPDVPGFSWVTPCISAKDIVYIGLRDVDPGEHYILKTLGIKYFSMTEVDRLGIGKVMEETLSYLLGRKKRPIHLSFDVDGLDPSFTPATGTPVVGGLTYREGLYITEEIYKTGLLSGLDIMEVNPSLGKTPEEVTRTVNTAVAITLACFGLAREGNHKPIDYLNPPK
The experiment is described as follows: Arginase enzymatic assay in vitro, recombinant human ARG1 (colorimetric urea detection). The experiment is classed as biochemical. As to conditions: recombinant human arginase 1; read-out: IC50 Inh rhARG1. The source says: (§1) Arginase catalyzes the hydrolysis of L-arginine into L-ornithine and urea. Urea amount produced by this reaction can be detected using a colorimetric assay and used as an indirect measurement of arginase activity. An adapted protocol from (Baggio, R., et al., J Pharmacol Exp Ther, 1999. 290(3): p. 1409-16) was used for the testing the ability of exemplary compounds of the invention to inhibit arginase enzymes from a variety of sources including recombinant human ARG1 and 2, lysates of human red blood cells (RBC) and intact murine macrophages, as described below.
(§2) Compounds of the invention were prepared from powder as 10 mM stock solutions in DMSO and stored in presence of N2 neutral atmosphere at −80° C. For IC50 determination and just before the assay, exemplary compounds were successively diluted to get the following concentrations: 210, 70, 21, 7, 2.1, 0.7, 0.21, 0.07, 0.021, 0.007, 0.0021 and 0.0007 μM (i.e., final concentrations in the wells of 30, 10, 3, 1, 0.3, 0.1, 0.03, 0.01, 0.003, 0.001, 0.0003, 0.0001 μM).
(§3) Assays were run in clear flat bottom 96-well plates (Nunclon, Cat. No. #167008) adding in each well the following solutions in this order: (1) 10 μl of Tris-HCl solution supplemented with 0.1% bovine serum albumin (BSA) containing 1.563 μg/ml recombinant human ARG1 (R&D System, Cat. No. #5868-AR-010), (2) 30 μl of Tris-HCl buffer containing 10 mM MnCl2 and (3) 10 μL of a pre-dilution of each test article or DMSO (vehicle). Compounds were allowed to interact with the enzyme-cofactor complex pre-incubating the plate at 37° C. for 30 min. To start the reaction, 20 μl of 50 mM L-arginine (Sigma Aldrich Cat. #A5006-100G) were added to each well in exception of the blank reaction (see below). All reactions were allowed to happen for 1 h at 37° C. To detect the urea production, reactions were stopped by adding 200 μl of a mixture of reagent A (4 mM o-phthalaldehyde in 50 mM Boric Acid, 1 M Sulfuric Acid, 0.03% Brij-35 (w/v)) and reagent B (4 mM N-(1-naphthyl)ethylenediamine in 50 mM Boric Acid, 1 M Sulfuric Acid, 0.03% Brij-35 (w/v)) in equal proportion. Color product was developed for 1 h at room temperature (RT) protected from light and then absorbance at 520 nm was measured using a Multifunction Microplate Reader (Synergy 4, Bioteck). Blank reactions were carried out by adding the L-arginine substrate only after the addition of mixture A-B. All reactions were carried out in duplicates.
(§4) The inhibition of urea production was calculated subtracting the absorbance from the blank reaction (zero enzymatic urea production) to the absorbance from all reactions and it was expressed as the percentage of the absorbance from the reaction containing the test article with respect to the absorbance from vehicle reaction (maximum of urea production).

Experiment [2] addresses T2, recombinant human ARG2 (Homo sapiens, UniProt P78540).
T2 construct: purchased BPS Bioscience 71659
T2 sequence (P78540 23-354): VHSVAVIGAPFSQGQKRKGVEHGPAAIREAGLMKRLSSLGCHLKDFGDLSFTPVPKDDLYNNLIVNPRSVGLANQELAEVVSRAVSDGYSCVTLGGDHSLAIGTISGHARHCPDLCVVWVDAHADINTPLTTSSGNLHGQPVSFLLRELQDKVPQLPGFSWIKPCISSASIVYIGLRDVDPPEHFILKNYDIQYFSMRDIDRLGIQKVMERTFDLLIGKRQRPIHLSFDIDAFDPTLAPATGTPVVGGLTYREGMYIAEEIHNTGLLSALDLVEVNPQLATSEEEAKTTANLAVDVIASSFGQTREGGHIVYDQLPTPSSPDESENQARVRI
The experiment is described as follows: Arginase enzymatic assay in vitro, recombinant human ARG2 (colorimetric urea detection). The format is biochemical. As to conditions: recombinant human arginase 2; read-out: IC50 Inh rhARG2.
From the text: as §1, §2, §3, §4
For testing inhibitory activity over recombinant human arginase II, 10 μl of Tris-HCl solution supplemented with 0.1% BSA containing 1.5 μg/ml recombinant human ARG2 (BPS Bioscience, Cat. No. #71659) was used instead of ARG1.

With `NC(CCCCB(O)O)(C(=O)O)C1CCN(C2CCc3ccccc32)CC1` (single isomer, unassigned) [Compound 2, 2-amino-6-borono-2-(1-(2,3-dihydro-1H-inden-1-yl)piperidin-4-yl)hexanoic acid], the pIC50 in experiment [1] and in experiment [2] was over 6.30 throughout.

As to `NC(CCCCB(O)O)(C(=O)O)C1CCN(C2CCc3ccccc32)CC1` (single isomer, unassigned) [Compound 3, 2-amino-6-borono-2-(1-(2,3-dihydro-1H-inden-1-yl)piperidin-4-yl)hexanoic acid], the pIC50 in experiment [1] and in experiment [2] was under 5.30 in each case.

Consider `NC(CCCCB(O)O)(C(=O)O)C1CCN(C2CCCc3ccccc32)CC1` (single isomer, unassigned) [Compound 4, 2-amino-6-borono-2-(1-(1,2,3,4-tetrahydronaphthalen-1-yl)piperidin-4-yl)hexanoic acid], for which the pIC50 in experiment [1] is over 6.30; in experiment [2], 5.30 to 6.30.

As to `NC(CCCCB(O)O)(C(=O)O)C1CCN(C2CCCc3ccccc32)CC1` (single isomer, unassigned) [Compound 5, 2-amino-6-borono-2-(1-(1,2,3,4-tetrahydronaphthalen-1-yl)piperidin-4-yl)hexanoic acid], the pIC50 in experiment [1] and in experiment [2] was over 6.30 each time.

Consider `NC(CCCCB(O)O)(C(=O)O)C1CCN(C2CCCc3ccccc32)CC1` (single isomer, unassigned) [Compound 6, 2-amino-6-borono-2-(1-(1,2,3,4-tetrahydronaphthalen-1-yl)piperidin-4-yl)hexanoic acid], for which the negative logarithm of the IC50 (pIC50) in experiment [1] and in experiment [2] was under 5.30 in each case.

For `CC(c1ccccc1)N1CCC(C(N)(CCCCB(O)O)C(=O)O)CC1` (single isomer, unassigned) [Compound 10, 2-amino-6-borono-2-(1-(1-phenylethyl)piperidin-4-yl)hexanoic acid], the negative logarithm of the IC50 (pIC50) in experiment [1] and in experiment [2] was over 6.30 each time.

For `CC(c1ccccc1)N1CCC(C(N)(CCCCB(O)O)C(=O)O)CC1` (single isomer, unassigned) [Compound 11, 2-amino-6-borono-2-(1-(1-phenylethyl)piperidin-4-yl)hexanoic acid], the pIC50 in experiment [1] and in experiment [2] was under 5.30 in each case.

Regarding `NC(CCCCB(O)O)(C(=O)O)C1CCN(C2CCc3cc(Cl)ccc32)CC1` (single isomer, unassigned) [Compound 14, 2-amino-6-borono-2-[1-(5-chloroindan-1-yl)-4-piperidyl]hexanoic acid], the pIC50 in experiment [1] and in experiment [2] was over 6.30 each time.

Turning to `NC(CCCCB(O)O)(C(=O)O)C1CCN(C2CCCc3cc(Cl)ccc32)CC1` (single isomer, unassigned) [Compound 17, 2-amino-6-borono-2-(1-(6-chloro-1,2,3,4-tetrahydronaphthalen-1-yl)piperidin-4-yl)hexanoic acid], the pIC50 in experiment [1] and in experiment [2] was over 6.30 throughout.

As to `CNC(CCCCB(O)O)(C(=O)O)C1CCN(C2CCCc3ccccc32)CC1` (single isomer, unassigned) [Compound 79, 6-borono-2-(methylamino)-2-(1-(1,2,3,4-tetrahydronaphthalen-1-yl)piperidin-4-yl)hexanoic acid], the pIC50 in experiment [1] and in experiment [2] was over 6.30 each time.

As for `NC(CCCCB(O)O)(C(=O)O)C1CCN(C2CCCc3ccc(F)cc32)CC1` (single isomer, unassigned) [Compound 83, 2-amino-6-borono-2-(1-(7-fluoro-1,2,3,4-tetrahydronaphthalen-1-yl)piperidin-4-yl)hexanoic acid], the pIC50 in experiment [1] and in experiment [2] was over 6.30 throughout.

For `NC(CCCCB(O)O)(C(=O)O)C1CCN(C2CCCCc3ccccc32)CC1` (single isomer, unassigned) [Compound 84, 2-amino-6-borono-2-(1-(6,7,8,9-tetrahydro-5H-benzo[7]annulen-5-yl)piperidin-4-yl)hexanoic acid], the values for the pIC50 in experiment [1] and in experiment [2] were over 6.30 and 5.30 to 6.30, respectively.

Turning to `NC(CCCCB(O)O)(C(=O)O)C1CCN(C2CCc3cc(C(F)(F)F)ccc32)CC1` (single isomer, unassigned) [Compound 85, 2-amino-6-borono-2-[1-[5-(trifluoromethyl)indan-1-yl]-4-piperidyl]hexanoic acid], the pIC50 in experiment [1] and in experiment [2] was over 6.30 each time.

Consider `NC(CCCCB(O)O)(C(=O)O)C1CCN(C2CCc3ccccc32)CC1` (centres unmarked) [Compound 1, 2-amino-6-borono-2-(1-(2,3-dihydro-1H-inden-1-yl)piperidin-4-yl)hexanoic acid], for which the pIC50 in experiment [1] was over 6.30; in experiment [2] it was 5.30 to 6.30.

With `CC(c1ccccc1)N1CCC(C(N)(CCCCB(O)O)C(=O)O)CC1` (centres unmarked) [Compound 9, 2-amino-6-borono-2-(1-(1-phenylethyl)piperidin-4-yl)hexanoic acid], the pIC50 in experiment [1] was over 6.30; in experiment [2] it was 5.30 to 6.30.

As for `CC1(C)OB(CCCCC(N)(C(=O)O)C2CCN(C3CCCc4ccccc43)CC2)OC1(C)C` (centres unmarked) [Compound 77, 2-amino-2-(1-(1,2,3,4-tetrahydronaphthalen-1-yl)piperidin-4-yl)-6-(4,4,5,5-tetramethyl-1,3,2-dioxaborolan-2-yl)hexanoic acid], the pIC50 was over 6.30 in experiment [1] and 5.30 to 6.30 in experiment [2].
